Target: human PDE10A2 (Homo sapiens (Human), UniProt Q9Y233)
Assay: PDE10 fluorescence polarization (IMAP FP) inhibition assay
Assay type: biochemical
Details: human PDE10A2 from transfected AD293 cells; FAM-labeled cAMP 50 nM; apparent inhibition constant; read-out: PDE10A Ki
How it was run: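 Cytoplasmic lysate of AD293 cells transiently expressing human PDE10A2 (enzyme level giving 20% conversion) incubated with 50 nM FAM-cAMP in pH 7.2 Tris/MgCl2 buffer, 30 min at room temperature. IMAP binding solution added, FP read after ≥1 h; 10-point 3-fold compound titrations fitted to a four-parameter equation.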

Sequence of human PDE10A2 (Q9Y233 267-1055): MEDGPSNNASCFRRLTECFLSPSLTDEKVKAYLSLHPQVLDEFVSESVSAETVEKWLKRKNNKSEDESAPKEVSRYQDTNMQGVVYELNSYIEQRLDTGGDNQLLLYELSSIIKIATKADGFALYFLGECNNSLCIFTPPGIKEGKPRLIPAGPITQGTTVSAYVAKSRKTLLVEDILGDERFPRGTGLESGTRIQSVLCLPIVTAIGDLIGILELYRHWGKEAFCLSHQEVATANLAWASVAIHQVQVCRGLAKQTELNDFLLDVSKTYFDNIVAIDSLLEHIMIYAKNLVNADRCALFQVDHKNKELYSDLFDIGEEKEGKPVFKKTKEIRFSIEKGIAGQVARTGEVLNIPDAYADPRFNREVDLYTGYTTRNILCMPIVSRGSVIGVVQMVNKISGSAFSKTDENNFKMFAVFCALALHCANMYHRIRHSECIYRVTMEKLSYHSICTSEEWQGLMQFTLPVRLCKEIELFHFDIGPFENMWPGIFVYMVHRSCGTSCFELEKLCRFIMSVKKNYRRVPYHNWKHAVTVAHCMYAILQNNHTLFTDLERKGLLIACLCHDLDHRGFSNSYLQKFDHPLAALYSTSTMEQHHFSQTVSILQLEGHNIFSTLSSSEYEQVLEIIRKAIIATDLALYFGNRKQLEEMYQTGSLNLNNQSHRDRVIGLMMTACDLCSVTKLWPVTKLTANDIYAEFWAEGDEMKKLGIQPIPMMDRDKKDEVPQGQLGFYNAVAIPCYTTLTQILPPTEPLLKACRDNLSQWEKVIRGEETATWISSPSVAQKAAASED

Compound	Ki
COc1cc(-c2cnc(C)nc2OC[C@H]2C[C@@H]2c2ccc(C)cn2)cc2nccn12 [Example 132, 5-methoxy-7-(2-methyl-4-(((1S,2S)-2-(5-methylpyridin-2-yl)cyclopropyl)methoxy)pyrimidin-5-yl)imidazo[1,2-a]pyridine]	810 pM
Cc1ccc([C@H]2C[C@@H]2COc2nc(C)ncc2-c2cc(F)cc(F)c2)nc1 [Example 7, 5-(3,5-difluorophenyl)-2-methyl-4-(((1S,2S)-2-(5-methylpyridin-2-yl)cyclopropyl)methoxy)pyrimidine]	460 pM
Cc1ccc([C@H]2C[C@@H]2COc2nc(C)ncc2[C@H]2CC[C@](C)(O)CC2)nc1 [Example 213, (trans)1-Methyl-4-(2-methyl-4-(((1S,2S)-2-(5-methylpyridin-2-yl)cyclopropyl)methoxy)pyrimidin-5-yl)cyclohexanol]	6860 pM
Cc1ncc(-c2cnc3[nH]ncc3c2)c(OC[C@H]2C[C@@H]2c2ccc3ccccc3n2)n1 (single isomer, unassigned) [Example 151]	20 pM
COc1ccc([C@H]2C[C@@H]2COc2nc(C)ncc2-c2ccc(C3(O)CCC3)nc2)nc1 [Example 92, 1-(5-(4-(((1S,2S)-2-(5-methoxypyridin-2-yl)cyclopropyl)methoxy)-2-methylpyrimidin-5-yl)pyridin-2-yl)cyclobutano1]	120 pM
Cc1ccc([C@H]2C[C@@H]2COc2nc(C)ncc2-c2ccc(C(O)C(F)(F)F)nc2)nc1 (stereo partly drawn) [Example 146]	250 pM
Cc1ncc(-c2ccc3nccn3c2)c(OC[C@H]2C[C@@H]2c2ccc3ccccc3n2)n1 [Example 136, 2-((1S,2S)-2-((5-(imidazo[1,2-a]pyridin-6-yl)-2-methylpyrimidin-4-yloxy)methyl)cyclopropyl)quinoline]	40 pM
CCc1ccc(-c2cnc(C)nc2OC[C@H]2C[C@@H]2c2ccc3ccccc3n2)cc1 (single isomer, unassigned) [Example 30]	370 pM
COc1ccc([C@H]2C[C@@H]2COc2nc(C)ncc2-c2ccc(-c3nc(CO)no3)cc2)nc1 [Example 95, (5-(4-(4-(((1S,2S)-2-(5-methoxypyridin-2-yl)cyclopropyl)methoxy)-2-methylpyrimidin-5-yl)phenyl)-1,2,4-oxadiazol-3-yl)methanol]	930 pM
Cc1ccc([C@H]2C[C@@H]2COc2nc(C)ncc2-c2ccncc2C(F)(F)F)nc1 [Example 17, 2-methyl-4-(((1S,2S)-2-(5-methylpyridin-2-yl)cyclopropyl)methoxy)-5-(3-(trifluoromethyl)pyridin-4-yl)pyrimidine]	590 pM
COc1ccc([C@H]2C[C@@H]2COc2nc(C)ncc2-c2cc(C#N)n(C)c2)nc1 [Example 113, 4-(4-(((1S,2S)-2-(5-methoxypyridin-2-yl)cyclopropyl)methoxy)-2-methylpyrimidin-5-yl)-1-methyl-1H-pyrrole-2-carbonitrile]	890 pM
Cc1cccc([C@H]2C[C@@H]2COc2nc(C)ncc2-c2ccc(C(C)(C)O)nc2)n1 (single isomer, unassigned) [Example 175]	200 pM
Cc1cccc([C@H]2C[C@@H]2COc2nc(C)ncc2-c2cn(C)nc2C(C)O)n1 (stereo partly drawn) [Example 158, 1-(1-methyl-4-(2-methyl-4-(((1S,2S)-2-(6-methylpyridin-2-yl)cyclopropyl)methoxy)pyrimidin-5-yl)-1H-pyrazol-3-yl)ethanol]	560 pM
Cc1cccc([C@H]2C[C@@H]2COc2nc(C)ncc2C2CCC3(CC2)OCCO3)n1 [Example 186, 2-methyl-4-(((1S,2S)-2-(6-methylpyridin-2-yl)cyclopropyl)methoxy)-5-(1,4-dioxaspiro[4.5]decan-8-yl)pyrimidine]	6670 pM
Cc1ncc([C@H]2CC[C@H](O)CC2)c(OC[C@H]2C[C@@H]2c2ccccn2)n1 [Example 199, Trans-4-(2-methyl-4-(((1S,2S)-2-(pyridin-2-yl)cyclopropyl)methoxy)pyrimidin-5-yl)cyclohexanol]	4790 pM
Cc1ccc([C@H]2C[C@@H]2COc2nc(C)ncc2-c2cccc(C(C)C)c2)nc1 [Example 4, 5-(3-isopropylphenyl)-2-methyl-4-(((1S,2S)-2-(5-methylpyridin-2-yl)cyclopropyl)methoxy)pyrimidine]	2140 pM
COc1ccc([C@H]2C[C@@H]2COc2nc(C)ncc2C2=CC(=O)CC2)nc1 [Example 77, 3-(4-(((1S,2S)-2-(5-methoxypyridin-2-yl)cyclopropyl)methoxy)-2-methylpyrimidin-5-yl)cyclopent-2-enone]	6280 pM
Cc1ncc(-c2ccc(C(C)(C)O)nc2)c(OC[C@H]2C[C@@H]2c2ccccn2)n1 [Example 123, 2-(5-(2-methyl-4-(((1S,2S)-2-(pyridin-2-yl)cyclopropyl)methoxy)pyrimidin-5-yl)pyridin-2-yl)propan-2-ol]	1090 pM

Compound	Ki
COc1ccc([C@H]2C[C@@H]2COc2nc(C)ncc2C2CCCC(=O)C2)nc1 (stereo partly drawn) [Example 207, 3-(4-(((1S,2S)-2-(5-Methoxypyridin-2-yl)cyclopropyl)methoxy)-2-methylpyrimidin-5-yl)cyclohexanone]	480 pM
COc1ccc([C@H]2C[C@@H]2COc2nc(C)ncc2-c2cnsc2)nc1 [Example 73, 4-(4-(((1S,2S)-2-(5-methoxypyridin-2-yl)cyclopropyl)methoxy)-2-methylpyrimidin-5-yl)isothiazole]	1130 pM
Cc1ccc([C@H]2C[C@@H]2COc2nc(C)ncc2-c2cnc(C(C)(C)O)cc2C)nc1 [Example 45, 2-(4-Methyl-5-(2-methyl-4-(((1S,2S)-2-(5-methylpyridin-2-yl)cyclopropyl)methoxy)pyrimidin-5-yl)pyridin-2-yl)propan-2-ol]	20 pM
COc1ccc([C@H]2C[C@@H]2COc2nc(C)ncc2-c2ccnc(OC(C)C)c2)nc1 [Example 74, 5-(2-isopropoxypyridin-4-yl)-4-(((1S,2S)-2-(5-methoxypyridin-2-yl)cyclopropyl)methoxy)-2-methylpyrimidine]	180 pM
COc1ccc([C@H]2C[C@@H]2COc2nc(C)ncc2-c2ccc(C(N)=O)nc2)nc1 [Example 105, 5-(4-(((1S,2S)-2-(5-methoxypyridin-2-yl)cyclopropyl)methoxy)-2-methylpyrimidin-5-yl)picolinamide]	1410 pM
COc1ccc([C@H]2C[C@@H]2COc2nc(C)ncc2-c2ccc(-c3nnn(C)n3)nc2)nc1 [Example 230, 4-(((1S,2S)-2-(5-methoxypyridin-2-yl)cyclopropyl)methoxy)-2-methyl-5-(6-(2-methyl-2H-tetrazol-5-yl)pyridin-3-yl)pyrimidine]	1640 pM
COc1ccc([C@H]2C[C@@H]2COc2nc(C)ncc2-c2cc(OC)nn2C)nc1 [Example 240, 5-(3-methoxy-1-methyl-1H-pyrazol-5-yl)-4-(((1S,2S)-2-(5-methoxypyridin-2-yl)cyclopropyl)methoxy)-2-methylpyrimidine]	29900 pM
COc1cccc([C@H]2C[C@@H]2COc2nc(C)ncc2C2CCC(=O)CC2)n1 [Example 202, 4-(4-(((1S,2S)-2-(6-methoxypyridin-2-yl)cyclopropyl)methoxy)-2-methylpyrimidin-5-yl)cyclohexanone]	2960 pM
CCOc1cc(-c2cnc(C)nc2OC[C@H]2C[C@@H]2c2ccc(OC)cn2)ccn1 [Example 75, 5-(2-ethoxypyridin-4-yl)-4-(((1S,2S)-2-(5-methoxypyridin-2-yl)cyclopropyl)methoxy)-2-methylpyrimidine]	140 pM
COc1ccc([C@H]2C[C@@H]2COc2nc(C)ncc2-c2ccc(-c3nnn(C(F)F)n3)cc2)nc1 [Example 227, 5-(4-(2-(difluoromethyl)-2H-tetrazol-5-yl)phenyl)-4-(((1S,2S)-2-(5-methoxypyridin-2-yl)cyclopropyl)methoxy)-2-methylpyrimidine]	3300 pM
COc1ccc([C@H]2C[C@@H]2COc2nc(C)ncc2C2=CC(=O)CC2)nc1 [Example 76, 3-(4-(((1S,2S)-2-(5-methoxypyridin-2-yl)cyclopropyl)methoxy)-2-methylpyrimidin-5-yl)cyclopent-2-enone]	480 pM
Cc1ncc(-c2ccc(C(C)O)cc2)c(OC[C@H]2C[C@@H]2c2ccccn2)n1 (stereo partly drawn) [Example 121, 1-(4-(2-methyl-4-(((1S,2S)-2-(pyridin-2-yl)cyclopropyl)methoxy)pyrimidin-5-yl)phenyl)ethanol]	5050 pM
COc1ccc([C@H]2C[C@@H]2COc2nc(C)ncc2-c2ccc(-c3nn[nH]n3)cc2)nc1 [Example 222, 5-(4-(1H-tetrazol-5-yl)phenyl)-4-(((1S,2S)-2-(5-methoxypyridin-2-yl)cyclopropyl)methoxy)-2-methylpyrimidine]	100 pM
COc1ccc([C@H]2C[C@@H]2COc2nc(C)ncc2-c2cc(Cl)ncc2OCOCC[Si](C)(C)C)nc1 [Example 112, 5-(2-chloro-5-((2-(trimethylsilyl)ethoxy)methoxy)pyridin-4-yl)-4-(((1S,2S)-2-(5-methoxypyridin-2-yl)cyclopropyl)methoxy)-2-methylpyrimidine]	19200 pM
COc1ccc([C@H]2C[C@@H]2COc2nc(C)ncc2-c2cc(Cl)ncc2OC)nc1 [Example 111, 5-(2-chloro-5-methoxypyridin-4-yl)-4-(((1S,2S)-2-(5-methoxypyridin-2-yl)cyclopropyl)methoxy)-2-methylpyrimidine]	790 pM
COC(=O)c1cnc(-c2cnc(C)nc2OC[C@H]2C[C@@H]2c2ccc(OC)cn2)cn1 [Example 97, methyl 5-(4-(((1S,2S)-2-(5-methoxypyridin-2-yl)cyclopropyl)methoxy)-2-methylpyrimidin-5-yl)pyrazine-2-carboxylate]	9740 pM
Cc1ncc(-c2ccc(CO)cc2)c(OC[C@H]2C[C@@H]2c2ccc3ccccc3n2)n1 (single isomer, unassigned) [Example 38]	30 pM
COc1ccc([C@H]2C[C@@H]2COc2nc(C)ncc2-c2ccc(-c3nc(C)no3)cc2)nc1 [Example 253, 5-(4-(4-(((1S,2S)-2-(5-methoxypyridin-2-yl)cyclopropyl)methoxy)-2-methylpyrimidin-5-yl)phenyl)-3-methyl-1,2,4-oxadiazole]	3020 pM

From patent publication US9663513B2, “Pyrimidine PDE10 inhibitors” (Merck Sharp & Dohme Corp., priority 2012, dated 2017)
